Laboratory results from article PMC5618341, “Controlled inhibition of methyltransferases using photoswitchable peptidomimetics: towards an epigenetic regulation of leukemia” (Chemical Science, 2017).
Like-named read-outs stand apart in the source and are kept apart here. Starred links: 1 amine or outer side, 2 acyl side, 3 side chain; linkers in the order of their positions; H or OH if unused. Non-standard residues stand in square brackets, D forms with d. Residues, ends and D or L forms follow the SMILES beside them. AMPB = O=C(c1ccc(N=Nc2ccc(CN[*:1])cc2)cc1)[*:2]; Ahx = NCCCCCC(=O)O; βAla = NCCC(=O)O

Columns and labels:
[1] = target: T1, WDR5Δ23 (Homo sapiens, UniProt P61964); design: method as in PMID 20575550; conditions: interaction with WDR5; cited from earlier work
T1 construct: His6-SUMO (N, cleaved yes); made in house; host or cells: E. coli DH5α (so in the source)

[2] = system: Deptor gene (MLL1 target gene); experiment: Real-time PCR of Deptor mRNA expression; type: cell-based, mouse; conditions: 10 μM, 96 h, RT-PCR, standardized to GAPDH, vs Mock
Excerpt: Finally, we tested whether our probe acts as an optoepi-genetic inhibitor and controls expression of MLL1 target genes. We used the Deptor gene as a reporter, given its importance in hematopoiesis and leukemogenesis,[51],[52] as well as significant regulation by MLL1 inhibition.[53] To this end, we examined Deptor expression by real-time PCR (RT-PCR). […] Of note, a small but significant (p = 0.008) difference between cis and trans isomers was observed. […] There is no statistically significant difference between cis isomer of 17 and the control.
Fig. 8 Relative Deptor mRNA expression levels in murine MLL-AF9-transduced mouse bone marrow cells after 96 h of incubation at 10 μM; they were analysed by RT-PCR and standardized to the endogenous GAPDH control. The significance is corroborated by the p-value.
Real Time Quantitative PCR Analysis of Deptor Gene
Murine MLL1-AF9 transformed bone marrow cells were obtained by transducing normal murine bone marrow cells with MLL1-AF9 oncogene according to the procedures described […]
100 mM stock) isomers, of peptides 7, 16, 17, as well as the peptides 18 and 19 were […]
The transformed cells were treated with different concentrations of the respective peptide (1.0, 5.0, 10 μM) and Mock (0.1% DMSO), giving a final concentration of 0.1% DMSO in all the samples. […] Relative quantification of each gene transcript was carried out as described previously.[28] […]

[3] = target: T1, WDR5Δ23; experiment: Fluorescence polarization (FP)-based competitive binding assay
[4] = Stability against GSH reduction; type: physicochemical; conditions: 10 mM GSH, four days, kept in the dark
Description: (§1) We then examined the potential of 16 and 17 to control externally the cellular response in proliferation assays. Thus, both isomers of both peptidomimetics were incubated at different concentrations for four days. After two days of incubation, the cells containing the cis isomers were irradiated at 430 nm for 90 seconds in a single isomerization cycle with a custom-made 6-well plate LED array.
H-bond cut off < 3.5 Å, Van der Waals: […]. N 3.81
Evaluation of Stability against GSH-reduction of Peptides
To test the stability of the AMPB-containing peptides 16 and 17 against reduction by glutathione (GSH), the peptides were incubated with GSH for 4 days.
Figure S72. Left: HPLC chromatograms of peptides, incubated with 10 mM GSH, recorded after different time periods. Left: peptide 16. Right: peptide 17. […]
peptides 16 and 17 (10 μM) in 0.1 M phosphate buffer pH = 7 were mixed giving final concentrations of 10 mM of GSH and 9.6 μM of the peptides, respectively. After different time periods, HPLC chromatograms of these mixtures were recorded (gradient: 5-40% B) (Figure […]
In Vitro Methyl Transferase Assay with MLL1 Core Complex
Full length constructs of both, RbBP5 (residues 1−538) and Ash2L (residues 1−635), were used for expression. […] MLL1, WDR5, RbBP5, and ASH2L were expressed as His-SUMO fusions from the pET28A-SUMO vector in BL21 DE3 pLyss codon (+) cells at 16 °C overnight. […]

[5] = target: MLL1 core complex (MLL1, WDR5, RbBP5, and ASH2L) (Homo sapiens, UniProt P61964); conditions: cis vs trans
Description: To test this, we studied the inhibition of MLL1 H3K4 methyltransferase activity through the previously reported in vitro HMT assay using the MLL1 core complex (i.e. MLL1, WDR5, RbBP5, and ASH2L) and the H3 20mer peptide as substrate.[17]
In Vitro Histone Methyltransferase (HMT) Assay
The HMT assay was performed, as previously described[25] with slight modifications, in 50 mM Tris pH 8.0, 50 mM NaCl, 1.0 mM DTT, 5 mM MgCl2 at room temperature. Each reaction contained 1.5 μM of the cofactor 3H-S-adenosylmethionine (Perkin-Elmer). H31-21 peptide was used as the substrate at 250 μM. […] Reactions were initiated by addition of the H3/SAM and allowed to proceed for 60 min before preparing scintillation counting. To count samples, reactions were spotted on separate squares of P81 filter paper (Millipore) and precipitated by submerging in freshly prepared 50 mM sodium bicarbonate buffer pH = 9.0. After washing and drying, the samples were vortexed in Ultima Gold scintillation fluid and counted.

[6] = Proliferation / cell viability assay (CellTiter-Glo); type: cell-based, mouse; conditions: trans isomer, 2.5 μM concentration, 96 h; read-out: viable cells
Description: We initially studied the cellular uptake and cell viability of our compounds in murine MLL-AF9-transduced mouse bone marrow cells (Fig. 5). In line with our expectations, peptidomimetics 16 and 17 that contained peptide 7 within their sequence are the ones that inhibited the cell proliferation of leukemia. […] Thus, while in the case of the trans isomer of peptidomimetic 16 we already determined less than 50% of viable cells at 2.5 μM concentration, with the WIN-containing conjugates 20 and 21 we measured 87% and 96% of viable cells at 50 μM concentration, respectively.
as §1
MLL-AF9-transduced mouse bone marrow was cultured in IMDM medium + 15% FBS and supplemented with 10 ng/mL interleukin-3 (IL-3) at each passage, every other day.
DMSO) isomers, of peptides 7, 16, 17, as well as the peptides 18 and 19 were diluted from stock to culture media containing a 0.1% DMSO final concentration. For viability assays, […]
72 h and DMSO as control . For the cis-trans group, after 48 h treatment with cis peptides, the plate was irradiated at […] for 90 sec and continued to culture for 2 days in the dark.
Viability was determined using the CellTiter-Glo Kit (Promega) according to the a a ’ d . was monitored on a Molecular Devices plate reader.

[7] = non-irradiated peptide (trans isomer), 72 nM WDR5Δ23, 20 nM tracer 22, read-out: IC50, non-irradiated (trans)
[8] = non-irradiated peptide (trans isomer), 72 nM WDR5Δ23, 20 nM tracer 22, read-out: Ki, non-irradiation (trans)

Ac-ARAEVHLRKS-NH2 [peptide 2]
Ki [1]: 3 nM

N=C(N)NCCC[C@H](NC(=O)[C@H](CCCNC(=N)N)NC(=O)[C@H](CCCNC(=N)N)NC(=O)[C@H](CCCNC(=N)N)NC(=O)[C@H](CCCNC(=N)N)NC(=O)[C@H](CCCNC(=N)N)NC(=O)[C@H](CCCNC(=N)N)NC(=O)[C@@H](N)CCCNC(=N)N)C(N)=O [peptide 18]
Deptor mRNA expression (in words) [2]: not affected

CC(C)C[C@H](NC(=O)[C@H](Cc1c[nH]cn1)NC(=O)[C@@H](NC(=O)c1ccc(N=Nc2ccc(CNC(=O)[C@H](C)NC(=O)[C@H](CCCNC(=N)N)NC(=O)[C@H](C)NC(=O)[C@@H](N)CO)cc2)cc1)C(C)C)C(=O)N[C@@H](CCCNC(=N)N)C(=O)N[C@@H](CCCCN)C(=O)N[C@@H](CO)C(=O)N[C@@H](CCCNC(=N)N)C(=O)NCCCCCC(=O)N[C@@H](CCCNC(=N)N)C(=O)N[C@@H](CCCNC(=N)N)C(=O)NCCCCCC(=O)N[C@@H](CCCNC(=N)N)C(=O)N[C@@H](CCCNC(=N)N)C(=O)NCCCCCC(=O)N[C@@H](CCCNC(=N)N)C(=O)N[C@@H](CCCNC(=N)N)C(=O)NCCCCCC(=O)N[C@@H](CCCNC(=N)N)C(=O)NCCCCCC(=O)NCCC(N)=O [peptide 17, H2N-SARA-AMPB-VHLRKS-(RahxR)4RAhxB-NH2] (H-SARA[AMPB]VHLRKSR[Ahx]RR[Ahx]RR[Ahx]RR[Ahx]R[Ahx][βAla]-NH2)
IC50 [3, 7]: 120 ± 25 nM | Ki [3, 8]: 0.925 ± 0.39 nM | stability of cis isomer against glutathione [4]: suitable cis/trans ratio

CC(C)C[C@H](NC(=O)[C@H](Cc1c[nH]cn1)NC(=O)[C@@H](NC(=O)c1ccc(N=Nc2ccc(CNC(=O)[C@H](C)NC(=O)[C@H](CCCNC(=N)N)NC(=O)[C@H](C)NC(=O)[C@@H](N)CO)cc2)cc1)C(C)C)C(=O)N[C@@H](CCCNC(=N)N)C(=O)N[C@@H](CCCCN)C(=O)N[C@@H](CO)C(N)=O [peptide 7, H2N-SARAXVHLRKS-CONH2] (H-SARA[AMPB]VHLRKS-NH2)
difference in IC50 between both isomers [5]: more than 15 fold | IC50 ([3]; IC50 cis (with 5 nM tracer), cis isomer (366 nm), 20 nM WDR5Δ23, 5 nM tracer 22): 147 ± 14 nM | IC50 ([3]; IC50 trans (with 5 nM tracer), trans isomer, 20 nM WDR5Δ23, 5 nM tracer 22): 57 ± 11 nM | Ki ([3]; Ki cis (with 5 nM tracer), cis isomer (366 nm), 20 nM WDR5Δ23, 5 nM tracer 22): 6.37 ± 1 nM | Ki ([3]; Ki trans (with 5 nM tracer), trans isomer, 20 nM WDR5Δ23, 5 nM tracer 22): 2.03 ± 0.42 nM | IC50 [3, 7]: 146 ± 21 nM | Ki [3, 8]: 1.25 ± 0.36 nM

N=C(N)NCCC[C@H](NC(=O)CCCCCNC(=O)[C@H](CCCNC(=N)N)NC(=O)[C@H](CCCNC(=N)N)NC(=O)CCCCCNC(=O)[C@H](CCCNC(=N)N)NC(=O)[C@H](CCCNC(=N)N)NC(=O)CCCCCNC(=O)[C@H](CCCNC(=N)N)NC(=O)[C@H](CCCNC(=N)N)NC(=O)CCCCCNC(=O)[C@@H](N)CCCNC(=N)N)C(=O)NCCCCCC(=O)NCCC(N)=O [peptide 19] (H-R[Ahx]RR[Ahx]RR[Ahx]RR[Ahx]R[Ahx][βAla]-NH2)
Deptor mRNA expression (in words) [2]: not affected

CC(C)C[C@H](NC(=O)[C@H](Cc1c[nH]cn1)NC(=O)[C@@H](NC(=O)c1ccc(N=Nc2ccc(CNC(=O)[C@H](C)NC(=O)[C@H](CCCNC(=N)N)NC(=O)[C@H](C)NC(=O)[C@@H](N)CO)cc2)cc1)C(C)C)C(=O)N[C@@H](CCCNC(=N)N)C(=O)N[C@@H](CCCCN)C(=O)N[C@@H](CO)C(=O)N[C@@H](CCCNC(=N)N)C(=O)N[C@@H](CCCNC(=N)N)C(=O)N[C@@H](CCCNC(=N)N)C(=O)N[C@@H](CCCNC(=N)N)C(=O)N[C@@H](CCCNC(=N)N)C(=O)N[C@@H](CCCNC(=N)N)C(=O)N[C@@H](CCCNC(=N)N)C(=O)N[C@@H](CCCNC(=N)N)C(N)=O [peptide 16, H2N-SARA-AMPB-VHLRKS-R8-NH2] (H-SARA[AMPB]VHLRKSRRRRRRRR-NH2)
IC50 [3, 7]: 135 ± 5 nM | Ki [3, 8]: 1.18 ± 0.095 nM | viability at 2.5 µM [6]: < 50% | stability of cis isomer against glutathione [4]: suitable cis/trans ratio
